Where a name gives a salt, the structure may show the parent alone. Read-outs that look alike come from different tables or passages of the source.
Assays:
CYP3A [1] = test: CYP3A catalytic activity (erythromycin N-demethylation) in mouse liver microsomes; conditions: for Percent control catalytic activity at estimated IC50 / Percent control catalytic activity at estimated 2-fold IC50: mouse liver microsomes, initial screen n=1; for Percent control catalytic activity at estimated IC50: compounds without reported IC50 at 1 µM; for Percent control catalytic activity at estimated 2-fold IC50: compounds without reported IC50 at 5 µM; for % of control (catalytic activity at 2-fold IC50) / Catalytic activity at 2-fold IC50 / % of control (catalytic activity at IC50): mouse; for % of control (catalytic activity at 2-fold IC50) / Catalytic activity at 2-fold IC50: compound at estimated 2-fold IC50 (5 µM where none reported); for % of control (catalytic activity at IC50): compound at estimated IC50 (1 µM where none reported)
Procedure: (§1) Possums were collected from the Otago Peninsula (Dunedin) and the Okuti Valley, Banks Peninsula (Christchurch) in New Zealand in collaboration with the Otago Peninsula Biodiversity Group and Manaaki Whenua-Landcare Research, respectively. […] Possums were caged and humanely killed by a blow to the head, and the livers were harvested, snap-frozen in liquid nitrogen, and stored in a freezer at −80 °C until the preparation of microsomal fractions. […] Mice were euthanised by carbon dioxide inhalation and the livers were removed and microsomes prepared. […] The livers from avian species (mallards and a swan) were kindly donated by a local bird hunting group based in Dunedin, New Zealand. The livers from avian species were treated similarly to those mentioned above for the possum samples.
(§2) Microsomal preparation was carried out as previously described [76]. […] All procedures were performed at 0–4 °C. The liver samples were minced and homogenised in Buffer A (0.1 M Tris, 0.1 M potassium chloride, 1 mM EDTA, and 20 μM butylated hydroxytoluene, at pH = 7.4) using the Teflon-glass homogeniser (5–6 vertical passes). The samples were centrifuged at 10,000× g for 20 min. The supernatant was then transferred into another set of centrifuge tubes and spun at 100,000× g for 60 min. The pellet was resuspended in Buffer B (0.1 M potassium pyrophosphate, 1 mM EDTA, and 20 μM butylated hydroxytoluene, at pH = 7.4), homogenised, and recentrifuged at 100,000× g for 60 min. Finally, the pellet was homogenised in 1–2 mL of Buffer C (10 mM Tris-HCl, 1 mM EDTA, and 4% glycerol (v/v)), and stored at −80 °C until use. The protein concentration of the microsomes was determined using the bicinchoninic acid (BCA) method [77].
(§3) CYP3A catalytic activity was determined using the erythromycin N-demethylation activity assay, as described [78]. The reaction mixture (final volume of 1 mL and final protein concentration of 1 mg) contained 500 µL of microsomes in 0.1 M phosphate buffer (pH 7.4) and 400 µL of erythromycin buffer (0.45 mM), and 50 µL of the test compound was pre-warmed at 37 °C for 2 min. The reaction was initiated with 50 µL of 2.5 mM nicotinamide adenine dinucleotide phosphate (NADP^+) and incubated for 30 min at 37 °C. […] The tubes were vortexed and left for 5 min (at room temperature), and then 330 µL of saturated barium hydroxide was added. The tubes were further vortexed and left for 5 min (at room temperature). The tubes were then centrifuged at 1800× g for 10 min. To 830 µL of the supernatant, 330 µL of Nash reagent (30% (w/v) ammonium acetate, 0.4% (v/v) acetylacetone) was added and further incubated for 30 min at 60 °C. The blank tube contained 330 µL of Nash reagent and 830 µL of Milli-Q water. […] The CYP3A activities were determined in nmol/mg/min using standard curve data. Results presented are the mean ± SEM of 3 independent experiments performed in duplicate unless otherwise stated.

CYP3A [2] = test: CYP3A catalytic activity (erythromycin N-demethylation) in possum liver microsomes; conditions: for Percent control catalytic activity at estimated IC50 / Percent control catalytic activity at estimated 2-fold IC50: possum liver microsomes, initial screen n=1; for Percent control catalytic activity at estimated IC50: compounds without reported IC50 at 1 µM; for Percent control catalytic activity at estimated 2-fold IC50: compounds without reported IC50 at 5 µM; for % of control (catalytic activity at 2-fold IC50) / Catalytic activity at 2-fold IC50 / % of control (catalytic activity at IC50): possum; for % of control (catalytic activity at 2-fold IC50) / Catalytic activity at 2-fold IC50: compound at estimated 2-fold IC50 (5 µM where none reported); for % of control (catalytic activity at IC50): compound at estimated IC50 (1 µM where none reported)
Procedure: as §1, §2, §3

CYP3A [3] = conditions: avian
Procedure: as §1, §2, §3

[4] = compound at estimated 2-fold IC50 (5 µM where none reported)

Row | Compound | Percent control catalytic activity at estimated IC50 (CYP3A [1]) | Percent control catalytic activity at estimated 2-fold IC50 (CYP3A [1]) | Percent control catalytic activity at estimated IC50 (CYP3A [2]) | Percent control catalytic activity at estimated 2-fold IC50 (CYP3A [2]) | further results
1 | Cc1ccc(-c2c(-c3nn(C)c4ncnc(N5CC[C@H](N6CCCCC6)C5)c34)cnn2C)cc1 [PF-4981517] | 101 percent control | 110 percent control | 98 percent control | 108 percent control | –
2 | CC(=O)c1ccccc1O [2'-Hydroxyacetophenone] | 112 percent control | 80 percent control | 108 percent control | 105 percent control | % of control (catalytic activity at 2-fold IC50) (CYP3A [3]; [4]): 102 % of control; Catalytic activity at 2-fold IC50 (CYP3A [3]; [4]): 0.36 ± 0.05 nmol/mg/min; % of control (catalytic activity at IC50) (CYP3A [3]; compound at estimated IC50 (1 µM where none reported)): 101 % of control; % of control (catalytic activity at 2-fold IC50) (CYP3A [1]): 75 % of control; Catalytic activity at 2-fold IC50 (CYP3A [1]): 0.35 ± 0.05 nmol/mg/min; % of control (catalytic activity at IC50) (CYP3A [1]): 129 % of control; % of control (catalytic activity at 2-fold IC50) (CYP3A [2]): 102 % of control; Catalytic activity at 2-fold IC50 (CYP3A [2]): 0.29 ± 0.05 nmol/mg/min; % of control (catalytic activity at IC50) (CYP3A [2]): 120 % of control
3 | COc1c(OC)c2occc2c2oc(=O)ccc12 [Pimpinellin] | 171 percent control | – | 133 percent control | – | –
4 | COc1cc2c(=O)c3c(O)c([C@@H]4O[C@H](CO[C@@H]5OC[C@](O)(CO)[C@H]5O)[C@@H](O)[C@H](O)[C@H]4O)c(O)cc3oc2cc1O [Polygalaxanthone III] | 92 percent control | 94 percent control | 102 percent control | 108 percent control | –
5 | O=C1c2ccc(O)cc2C(=O)c2ccc(O)cc21 [2,6-Dihydroxyanthraquinone] | 106 percent control | 128 percent control | 97 percent control | 102 percent control | –
6 | O=C(O)/C=C/c1ccc(Cn2ccnc2)cc1 [Ozagrel] | 93 percent control | 92 percent control | 97 percent control | 109 percent control | –
7 | O=C([O-])C(O)Cc1ccc(O)c(O)c1.[Na+] (stereo not shown) [Sodium Danshensu] | 98 percent control | 107 percent control | 116 percent control | 118 percent control | –
8 | CC(C)c1cc(C(C)C)c(CC(=O)NS(=O)(=O)Oc2c(C(C)C)cccc2C(C)C)c(C(C)C)c1 [Avasimibe] | 91 percent control | 92 percent control | – | – | –
9 | CC(C)(C)C(O)/C(=C\c1ccc(Cl)cc1)n1cncn1 (stereo not shown) [Uniconazole] | 67 percent control | 40 percent control | 82 percent control | 84 percent control | –
10 | CC(=O)O[C@H]1CC[C@@]2(C)C(=CC[C@@H]3[C@@H]2CC[C@]2(C)C(c4cccnc4)=CC[C@@H]32)C1 [Abiraterone Acetate] | 85 percent control | 89 percent control | 128 percent control | 110 percent control | –
11 | Cl.O=C(O)/C=C/c1ccc(Cn2ccnc2)cc1 [Ozagrel HCl] | 92 percent control | 85 percent control | 121 percent control | 95 percent control | –
12 | c1ccc2[nH]c(-c3cscn3)nc2c1 [Thiabendazole] | 85 percent control | 95 percent control | 94 percent control | 92 percent control | –
13 | CC(C)(C)C(O)/C=C/c1ccc2c(c1)OCO2 (stereo not shown) [Stiripentol] | 119 percent control | 102 percent control | 109 percent control | 105 percent control | –
14 | C[C@@H]1O[C@@H](O[C@H]2[C@H](Oc3cc(O)c(C(=O)CCc4ccc(O)cc4)c(O)c3)O[C@H](CO)[C@@H](O)[C@@H]2O)[C@H](O)[C@H](O)[C@H]1O [Naringin Dihydrochalcone] | 92 percent control | 96 percent control | 111 percent control | 87 percent control | % of control (catalytic activity at 2-fold IC50) (CYP3A [1]): 102 % of control; Catalytic activity at 2-fold IC50 (CYP3A [1]): 0.54 ± 0.07 nmol/mg/min; % of control (catalytic activity at IC50) (CYP3A [1]): 97 % of control; % of control (catalytic activity at 2-fold IC50) (CYP3A [2]): 92 % of control; Catalytic activity at 2-fold IC50 (CYP3A [2]): 0.33 ± 0.02 nmol/mg/min; % of control (catalytic activity at IC50) (CYP3A [2]): 106 % of control
15 | COc1cc2c(cc1OC)[C@@H](Cc1ccc(Oc3cc(C[C@@H]4c5cc(OC)c(OC)cc5CCN4C)ccc3O)cc1)N(C)CC2 [Dauricine] | 113 percent control | 112 percent control | 108 percent control | 117 percent control | –
16 | O=C(O)[C@H](O)Cc1ccc(O)c(O)c1 [Danshensu] | 97 percent control | – | 113 percent control | – | –
17 | CCc1ccc(CCOc2ccc(CC3SC(=O)NC3=O)cc2)nc1 (stereo not shown) [Pioglitazone HCl] | 98 percent control | 100 percent control | 99 percent control | 87 percent control | –
18 | C=CCSCC=C [Diallyl sulfide] | 72 percent control | 84 percent control | 103 percent control | 96 percent control | –
19 | CC12CC3CC(C)(C1)CC(N)(C3)C2 [Memantine HCl] | 104 percent control | 98 percent control | 117 percent control | 109 percent control | –
20 | CC[C@@H]([C@H](C)O)n1ncn(-c2ccc(N3CCN(c4ccc(OC[C@@H]5CO[C@@](Cn6cncn6)(c6ccc(F)cc6F)C5)cc4)CC3)cc2)c1=O [Posaconazole] | 101 percent control | 74 percent control | 93 percent control | 92 percent control | –
21 | O=C(O)c1ccc(-n2nc(-c3ccccc3O)nc2-c2ccccc2O)cc1 [Deferasirox] | 87 percent control | – | 93 percent control | – | –
22 | O=C1C[C@@H](c2ccc(O)cc2)Oc2cc(O)cc(O)c21 [Naringenin] | 71 percent control | – | 84 percent control | – | % of control (catalytic activity at 2-fold IC50) (CYP3A [1]): 240 % of control; Catalytic activity at 2-fold IC50 (CYP3A [1]): 1.09 ± 0.04 nmol/mg/min; % of control (catalytic activity at 2-fold IC50) (CYP3A [2]): 175 % of control; Catalytic activity at 2-fold IC50 (CYP3A [2]): 0.56 ± 0.02 nmol/mg/min
23 | O=[N+]([O-])c1cn(C(c2ccccc2)(c2ccccc2)c2ccccc2)cn1 [CDD3505] | 88 percent control | 89 percent control | 129 percent control | 145 percent control | –
24 | O=c1cc(-c2ccc(O)cc2)oc2cc(O)cc(O)c12 [Apigenin] | 116 percent control | 106 percent control | 94 percent control | 121 percent control | –
25 | O=c1c(O)c(-c2ccccc2)oc2cc(O)cc(O)c12 [Galangin] | 131 percent control | 123 percent control | 115 percent control | 103 percent control | –

— publication PMC10253456, “Investigating the Contribution of Major Drug-Metabolising Enzymes to Possum-Specific Fertility Control” (International Journal of Molecular Sciences, 2023)
